# Values quoted from earlier work in patent US20220305055A1, “PHARMACEUTICAL CO[…]” (Zincum, Inc., priority 2016, published 2022).
# System: diabetic rats
# Settings: zinc chloride administered
structure (smiles),measurement,value
[Cl-].[Cl-].[Zn+2] [zinc chloride],hyperglycemia,hyperglycemia improved
